Reference: patent US11208415B2, “Substituted indole Mcl-1 inhibitors” (Vanderbilt University, priority 2014, dated 2021)

Biological target: recombinant Mcl-1 (residues 172-327) (Homo sapiens (Human), UniProt Q07820)
Experiment: Fluorescence polarization anisotropy competition assay (FITC-Bak or FITC-Bim BH3 peptide), Mcl-1
Type: binding
Details: FITC-labeled BH3 peptide (Bak or Bim) displacement; Ki converted from IC50; printed as range bins; read-out: Ki for Inhibition of Mcl-1

recombinant Mcl-1 (residues 172-327), sequence (Q07820 172-327): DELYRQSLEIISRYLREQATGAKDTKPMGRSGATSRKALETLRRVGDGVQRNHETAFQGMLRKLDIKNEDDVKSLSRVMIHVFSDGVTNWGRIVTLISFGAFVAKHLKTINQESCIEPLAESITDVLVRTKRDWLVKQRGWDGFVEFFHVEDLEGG

Ki: < 50 nM
SMILES: Cc1cc(OCCCc2c3n(c4c(-c5c(C)nn(C)c5C)c(Cl)ccc24)CCCN(c2cc(C(=O)O)c4cn(C)nc4c2)C3=O)cc(C)c1Cl [Example I-366, 6-(8-chloro-1-(3-(4-chloro-3,5-dimethylphenoxy)propyl)-1-oxo-7-(1,3,5-trimethyl-1H-pyrazol-4-yl)-4,5-dihydro-1H-[1,4]diazepino[1,2-a]indol-2(3H)-yl)-2-methyl-2H-indazole-4-carboxylic acid]
